{"source": "patent US10562869B2", "about": "“Oxadiazole compounds” (REMYND NV, priority 2014, dated 2020)"}
{"test_system": "M17_3TAU(P301L) cells", "experiment": "Retinoic acid-induced cytotoxicity (LDH) in TAU-P301L expressing M17_3TAU(P301L) neuroblastoma cells", "assay_type": "cell-based", "conditions": "Homo sapiens, Neuroblastoma cell, 168 h; toxicity inhibition (LDH) in M17_3TAU(P301L) cells challenged with retinoic acid, 7 days", "description": "A TAU expression plasmid was constructed by sub-cloning the cDNA encoding for human TAU-P301L protein, wherein proline at position 301 was substituted by a leucine residue, into mammalian expression vector pcDNA3.1 resulting in the plasmid pcDNA3.1-TAUP301L. Plasmid pcDNA3.1-TAU P301L was transfected into human neuroblastoma cells (BE-M17; ATCC No. CRL-2267™) using lipofectamine reagent and subsequently, independent clonal cell lines with the plasmids stably integrated into the genome were selected by antibiotic resistance selection (Geneticin (G418)), resulting in cell line M17_3TAUP301L. Expression of the TAUP301L gene in the M17_3TAUP301L cells was confirmed by Western blot analysis.\nM17_3TAU(P301L) cells were treated chronically with retinoic acid (RA) in low serum conditions to induce Alzheimer's disease-like intracellular signaling deregulation leading to increased TAU levels and subsequent cell death. Cytotoxicity of cells was measured by quantification of lactate dehydrogenase (LDH) levels. In dead cells LDH leaked out of the cells into the medium due to a loss of plasma-membrane integrity.\n3 days preceding the experiment, a pre-culture of M17_3TAU(P301L) cells was prepared, starting from a stock culture, at a density of 50.000-100.000 cells/cm^2 in culture medium (Optimem Reduced Serum with phenol red (Invitrogen, Cat. 31985-047)) supplemented with 10% fetal calf serum (FCS), 1 mM sodium pyruvate, 1×non-essential amino acids (NEAA), 500 μg/ml G418 and 0.5×(ABAM). At the day of the experiment these precultures were diluted to ˜0.1·10^6 cells/ml in detection medium (Optimem Reduced Serum without phenol red (Gibco, Cat.11058-021) supplemented with 1% fetal calf serum (FCS), 1 mM sodium pyruvate, 1×non-essential amino acids (NEAA), 500 μg/ml G418 and 0.5×ABAM) and 60 μL of this suspension was dispensed per well into a 96-well microtiter plate. After 3 hours of incubation at 37° C./5% CO2 an equal volume of detection medium (without FCS) containing 3.75 μM RA was added and subsequently incubated for 7 days at 37° C./5% CO2. Then LDH activity was determined using the Promega Cytotox 96 Non-Radioactive cytotoxicity assay (Cat. G1780), according to the manufacturer's instructions. Cytotoxicity was defined as the ratio of LDH relative the total LDH in the cells and supernatant.\nThe assay described above using the M17_3TAU(P301L) cell line allowed to screen compounds for their ability to decrease cytotoxicity in RA-challenged cells. Compounds of the invention were tested for their ability to decrease toxicity at different concentrations, ranging from low non-effective concentrations to high potent concentrations. Afterwards, the dose-dependent inhibition curve was used to calculate their EC50. A compound was considered to be active in this test when it inhibited toxicity by more than 20% relative to untreated M17_3TAU(P301L) cells at a concentration of 10 μM or lower.", "units": {"EC50": "nM"}}
{"smiles": "Clc1ccccc1CN1CCN(c2nc(-c3ccccc3)no2)CC1", "note": "[Cmpd001, 5-(4-(2-Chlorobenzyl)piperazin-1-yl)-3-phenyl-1,2,4-oxadiazole]", "EC50": 27}
{"smiles": "Clc1ccc(CCN2CCN(c3nc(-c4ccc(Cl)cc4)no3)CC2)cc1", "note": "[Cmpd019, 5-(4-(4-Chlorophenethyl)piperazin-1-yl)-3-(4-chlorophenyl)-1,2,4-oxadiazole]", "EC50": 112}
{"smiles": "Cc1cc(Cc2noc(N3CCN(CCc4ccc(Cl)cc4)CC3)n2)ccn1", "note": "[Cmpd170, 5-(4-(4-Chlorophenethyl)piperazin-1-yl)-3-((2-methylpyridin-4-yl)methyl)-1,2,4-oxadiazole]", "EC50": 640}
{"smiles": "COc1cccc(CCN2CCN(c3nc(-c4ccc(Cl)cc4)no3)CC2)c1", "note": "[Cmpd021, 3-(4-Chlorophenyl)-5-(4-(3-methoxyphenethyl)piperazin-1-yl)-1,2,4-oxadiazole]", "EC50": 5}
{"smiles": "COc1cccc(CCN2CCN(c3nc(Cc4ccc(F)c(F)c4)no3)CC2)c1", "note": "[Cmpd098, 1-[3-(3,4-Difluoro-benzyl)-[1,2,4]oxadiazol-5-yl]-4-[2-(3-methoxy-phenyl)-ethyl]-piperazine]", "EC50": 3}
{"smiles": "Fc1ccc(Cc2noc(N3CCN(CCc4ccc(Cl)cc4)CC3)n2)cc1F", "note": "[Cmpd102, 1-[2-(4-Chloro-phenyl)-ethyl]-4-[3-(3,4-difluoro-benzyl)-[1,2,4]oxadiazol-5-yl]-piperazine]", "EC50": 17}
{"smiles": "FC(F)(F)Cc1noc(N2CCN(CCc3ccc(Cl)cc3)CC2)n1", "note": "[Cmpd164, 5-(4-(4-Chlorophenethyl)piperazin-1-yl)-3-(2,2,2-trifluoroethyl)-1,2,4-oxadiazole]", "EC50": 306}
{"smiles": "CC(C)CCN1CCN(c2nc(CCC(F)(F)F)no2)CC1", "note": "[Cmpd179, 5-(4-Isopentylpiperazin-1-yl)-3-(3,3,3-trifluoropropyl)-1,2,4-oxadiazole]", "EC50": 46}
{"smiles": "COc1ccc(CCN2CCN(c3nc(Cc4ccc(Cl)cc4)no3)CC2)cn1", "note": "[Cmpd060, 1-[3-(4-Chloro-benzyl)-[1,2,4]oxadiazol-5-yl]-4-[2-(6-methoxy-pyridin-3-yl)-ethyl]-piperazine]", "EC50": 74}
{"smiles": "Cc1ccc(CN2CCN(c3nc(-c4ccccc4)no3)CC2)cc1", "note": "[Cmpd002, 5-(4-(4-Methylbenzyl)piperazin-1-yl)-3-phenyl-1,2,4-oxadiazole]", "EC50": 8}
{"smiles": "Fc1ccc(C2(c3noc(N4CCN(CCc5ccc(Cl)cc5)CC4)n3)CC2)cc1", "note": "[Cmpd111, 5-(4-(4-Chlorophenethyl)piperazin-1-yl)-3-(1-(4-fluorophenyl)cyclopropyl)-1,2,4-oxadiazole]", "EC50": 237}
{"smiles": "Clc1ccc(CCN2CCN(c3nc(Cc4ccc(Cl)cc4)no3)CC2)cc1", "note": "[Cmpd059, 1-[3-(4-Chloro-benzyl)-[1,2,4]oxadiazol-5-yl]-4-[2-(4-chloro-phenyl)-ethyl]-piperazine]", "EC50": 220}
{"smiles": "CCC(c1ccccc1)c1noc(N2CCN(CCc3cccc(OC)c3)CC2)n1", "note": "(centres unmarked) [Cmpd049, 5-(4-(3-Methoxyphenethyl)piperazin-1-yl)-3-(1-phenylpropyl)-1,2,4-oxadiazole]", "EC50": 10}
{"smiles": "CC(C)CCN1CCN(c2nc(C3C[C@@H]4CC[C@H]3C4)no2)CC1", "note": "(stereo partly drawn) [Cmpd189, 3-((1S,4R)-bicyclo[2.2.1]heptan-2-yl)-5-(4-isopentylpiperazin-1-yl)-1,2,4-oxadiazole]", "EC50": 3}
{"smiles": "Clc1ccc(Cc2noc(N3CCN(Cc4ccccc4Cl)CC3)n2)cc1", "note": "[Cmpd062, 1-(2-Chloro-benzyl)-4-[3-(4-chloro-benzyl)-[1,2,4]oxadiazol-5-yl]-piperazine]", "EC50": 2}
{"smiles": "Cc1ccc(CN2CCN(c3nc(Cc4ccc(Cl)cc4)no3)CC2)cc1", "note": "[Cmpd063, 1-[3-(4-Chloro-benzyl)-[1,2,4]oxadiazol-5-yl]-4-(4-methyl-benzyl)-piperazine]", "EC50": 174}
{"smiles": "Fc1ccc(C(F)(F)c2noc(N3CCN(Cc4ccc5c(c4)OCO5)CC3)n2)cc1", "note": "[Cmpd149, 5-(4-(Benzo[d][1,3]dioxol-5-ylmethyl)piperazin-1-yl)-3-(difluoro(4-fluorophenyl)methyl)-1,2,4-oxadiazole]", "EC50": 849}
{"smiles": "FC(F)(F)CCc1noc(N2CCN(CCN3CCOCC3)CC2)n1", "note": "[Cmpd180, 4-(2-(4-(3-(3,3,3-Trifluoropropyl)-1,2,4-oxadiazol-5-yl)piperazin-1-yl)ethyl)morpholine]", "EC50": 222}
{"smiles": "COc1cccc(CCN2CCN(c3nc(C(C)(C)c4ccc(F)cc4)no3)CC2)c1", "note": "[Cmpd118, 3-(2-(4-Fluorophenyl)propan-2-yl)-5-(4-(3-methoxyphenethyl)piperazin-1-yl)-1,2,4-oxadiazole]", "EC50": 105}
{"smiles": "CC(C)CCN1CCN(c2nc(Cc3ccc(Cl)cc3)no2)CC1", "note": "[Cmpd067, 3-(4-Chlorobenzyl)-5-(4-isopentylpiperazin-1-yl)-1,2,4-oxadiazole]", "EC50": 22}
{"smiles": "Cc1ccccc1CN1CCN(c2nc(CCC(F)(F)F)no2)CC1", "note": "[Cmpd176, 5-(4-(2-Methylbenzyl)piperazin-1-yl)-3-(3,3,3-trifluoropropyl)-1,2,4-oxadiazole]", "EC50": 169}
{"smiles": "Cc1cccc(CN2CCN(c3nc(CCC(F)(F)F)no3)CC2)n1", "note": "[Cmpd182, 5-(4-((6-Methylpyridin-2-yl)methyl)piperazin-1-yl)-3-(3,3,3-trifluoropropyl)-1,2,4-oxadiazole]", "EC50": 282}
{"smiles": "Clc1ccc(CCN2CCN(c3nc(-c4cccc(Cl)c4)no3)CC2)cc1", "note": "[Cmpd024, 5-(4-(4-Chlorophenethyl)piperazin-1-yl)-3-(3-chlorophenyl)-1,2,4-oxadiazole]", "EC50": 119}
{"smiles": "c1ccc(Cc2noc(N3CCN(Cc4ccc5c(c4)OCO5)CC3)n2)cc1", "note": "[Cmpd040, 1-Benzo[1,3]dioxol-5-ylmethyl-4-(3-benzyl-[1,2,4]oxadiazol-5-yl)-piperazine]", "EC50": 64}
{"smiles": "N#Cc1ccccc1CN1CCN(c2nc(-c3cccc(Cl)c3)no2)CC1", "note": "[Cmpd028, 2-((4-(3-(3-Chlorophenyl)-1,2,4-oxadiazol-5-yl)piperazin-1-yl)methyl)benzonitrile]", "EC50": 48}
{"smiles": "COc1cc(CCN2CCN(c3nc(-c4ccccc4)no3)CC2)ccn1", "note": "[Cmpd004, 5-(4-(2-(2-Methoxypyridin-4-yl)ethyl)piperazin-1-yl)-3-phenyl-1,2,4-oxadiazole]", "EC50": 36}
{"smiles": "COc1cccc(CCN2CCN(c3nc(-c4ccc(C)cc4)no3)CC2)c1", "note": "[Cmpd009, 5-(4-(3-Methoxyphenethyl)piperazin-1-yl)-3-(p-tolyl)-1,2,4-oxadiazole]", "EC50": 39}
{"smiles": "Cc1ccccc1CN1CCN(c2nc(Cc3cccc(Cl)c3)no2)CC1", "note": "[Cmpd075, 1-[3-(3-Chloro-benzyl)-[1,2,4]oxadiazol-5-yl]-4-(2-methyl-benzyl)-piperazine]", "EC50": 238}
{"smiles": "C1CN(CCN2CCN(c3nc(C4C[C@@H]5CC[C@H]4C5)no3)CC2)CCO1", "note": "(stereo partly drawn) [Cmpd188, 4-(2-(4-(3-((1S,4R)-bicyclo[2.2.1]heptan-2-yl)-1,2,4-oxadiazol-5-yl)piperazin-1-yl)ethyl)morpholine]", "EC50": 4}
{"smiles": "COc1cccc(CCN2CCN(c3nc(C4(c5ccccc5)CC4)no3)CC2)c1", "note": "[Cmpd125, 5-(4-(3-Methoxyphenethyl)piperazin-1-yl)-3-(1-phenylcyclopropyl)-1,2,4-oxadiazole]", "EC50": 103}
{"smiles": "FC(F)(F)CCc1noc(N2CCN(CCc3ccc(Cl)cc3)CC2)n1", "note": "[Cmpd174, 5-(4-(4-Chlorophenethyl)piperazin-1-yl)-3-(3,3,3-trifluoropropyl)-1,2,4-oxadiazole]", "EC50": 24}
{"smiles": "Fc1ccccc1CN1CCN(c2nc(Cc3ccc(Cl)cc3)no2)CC1", "note": "[Cmpd061, 3-(4-Chlorobenzyl)-5-(4-(2-fluorobenzyl)piperazin-1-yl)-1,2,4-oxadiazole]", "EC50": 685}
{"smiles": "COc1cc(CCN2CCN(c3nc(-c4cccc(F)c4)no3)CC2)ccn1", "note": "[Cmpd032, 3-(3-Fluorophenyl)-5-(4-(2-(2-methoxypyridin-4-yl)ethyl)piperazin-1-yl)-1,2,4-oxadiazole]", "EC50": 8}
{"smiles": "CC(C)CCN1CCN(c2nc(-c3ccccc3)no2)CC1", "note": "[Cmpd006, 5-(4-Isopentylpiperazin-1-yl)-3-phenyl-1,2,4-oxadiazole]", "EC50": 8}
{"smiles": "Cc1ccc(-c2noc(N3CCN(Cc4ccc5c(c4)OCO5)CC3)n2)cc1", "note": "[Cmpd007, 5-(4-(Benzo[d][1,3]dioxol-5-ylmethyl)piperazin-1-yl)-3-(p-tolyl)-1,2,4-oxadiazole]", "EC50": 352}
